Assay results: BindingDB's records for doi:10.1007/s00213-006-0490-4 (Purdue University, 2006)

Experiments:
Histamine H3 receptor = Histamine H3 receptor (Cavia porcellus, UniProt Q9JI35)
[1] = biological target: Alpha-2B adrenergic receptor (Homo sapiens, UniProt P18089)
Histamine H1 receptor = Histamine H1 receptor (Homo sapiens, UniProt P35367)
D(1B) dopamine receptor = D(1B) dopamine receptor (Homo sapiens, UniProt P21918)
[2] = biological target: Delta-type opioid receptor (Homo sapiens, UniProt P41143)
Delta-type opioid receptor, sequence (P41143 whole entry): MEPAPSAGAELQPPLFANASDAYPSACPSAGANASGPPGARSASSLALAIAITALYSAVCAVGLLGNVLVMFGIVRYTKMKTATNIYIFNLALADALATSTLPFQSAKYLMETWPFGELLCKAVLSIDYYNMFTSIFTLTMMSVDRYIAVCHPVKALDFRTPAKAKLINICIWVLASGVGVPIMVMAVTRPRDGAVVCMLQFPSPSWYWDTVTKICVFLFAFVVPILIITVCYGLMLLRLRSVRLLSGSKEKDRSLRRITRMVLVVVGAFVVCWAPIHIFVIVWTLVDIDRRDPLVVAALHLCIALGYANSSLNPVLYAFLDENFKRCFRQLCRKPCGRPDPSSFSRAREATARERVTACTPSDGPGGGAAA

D(2) dopamine receptor = D(2) dopamine receptor (Homo sapiens, UniProt P14416)
[3] = biological target: Beta-2 adrenergic receptor (Rattus norvegicus, UniProt P10608)
Beta-2 adrenergic receptor, sequence (P10608 whole entry): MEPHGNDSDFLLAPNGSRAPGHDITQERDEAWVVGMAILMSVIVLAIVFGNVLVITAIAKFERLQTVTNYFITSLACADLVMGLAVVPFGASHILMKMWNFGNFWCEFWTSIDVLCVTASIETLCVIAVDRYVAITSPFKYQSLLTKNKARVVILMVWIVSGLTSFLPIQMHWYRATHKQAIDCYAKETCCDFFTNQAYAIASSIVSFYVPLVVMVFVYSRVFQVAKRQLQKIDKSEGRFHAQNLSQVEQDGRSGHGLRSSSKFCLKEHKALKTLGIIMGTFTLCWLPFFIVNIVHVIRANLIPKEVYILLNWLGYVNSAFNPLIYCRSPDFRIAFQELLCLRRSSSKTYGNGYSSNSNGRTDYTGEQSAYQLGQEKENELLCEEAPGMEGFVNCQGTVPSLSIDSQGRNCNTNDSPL

Histamine H2 receptor = Histamine H2 receptor (Homo sapiens, UniProt P25021)
[4] = biological target: Alpha-2A adrenergic receptor (Homo sapiens, UniProt P08913)
Alpha-2A adrenergic receptor, sequence (P08913 whole entry): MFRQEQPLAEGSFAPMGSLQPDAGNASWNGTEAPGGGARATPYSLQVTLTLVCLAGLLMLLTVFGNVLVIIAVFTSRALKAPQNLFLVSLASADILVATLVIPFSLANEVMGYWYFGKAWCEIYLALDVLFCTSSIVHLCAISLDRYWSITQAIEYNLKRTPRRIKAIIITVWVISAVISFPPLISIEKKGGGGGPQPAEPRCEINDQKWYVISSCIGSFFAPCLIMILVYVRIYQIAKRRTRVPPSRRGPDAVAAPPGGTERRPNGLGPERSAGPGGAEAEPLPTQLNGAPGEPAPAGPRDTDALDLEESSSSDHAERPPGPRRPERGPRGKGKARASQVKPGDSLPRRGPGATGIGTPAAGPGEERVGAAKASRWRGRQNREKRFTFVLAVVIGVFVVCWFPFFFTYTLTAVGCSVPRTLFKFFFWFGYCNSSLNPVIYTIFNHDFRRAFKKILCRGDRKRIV

D(3) dopamine receptor = D(3) dopamine receptor (Rattus norvegicus, UniProt P19020)
[5] = biological target: 5-hydroxytryptamine receptor 2A (Homo sapiens, UniProt P28223)
[6] = biological target: Alpha-2C adrenergic receptor (Homo sapiens, UniProt P18825)
[7] = biological target: Gamma-aminobutyric acid receptor subunit alpha-1 (Rattus norvegicus, UniProt P62813)
[8] = biological target: Muscarinic acetylcholine receptor M5 (Homo sapiens, UniProt P08912)
[9] = biological target: Muscarinic acetylcholine receptor M2 (Homo sapiens, UniProt P08172)
[10] = biological target: 5-hydroxytryptamine receptor 2C (Rattus norvegicus, UniProt P08909)
5-hydroxytryptamine receptor 2C, sequence (P08909 whole entry): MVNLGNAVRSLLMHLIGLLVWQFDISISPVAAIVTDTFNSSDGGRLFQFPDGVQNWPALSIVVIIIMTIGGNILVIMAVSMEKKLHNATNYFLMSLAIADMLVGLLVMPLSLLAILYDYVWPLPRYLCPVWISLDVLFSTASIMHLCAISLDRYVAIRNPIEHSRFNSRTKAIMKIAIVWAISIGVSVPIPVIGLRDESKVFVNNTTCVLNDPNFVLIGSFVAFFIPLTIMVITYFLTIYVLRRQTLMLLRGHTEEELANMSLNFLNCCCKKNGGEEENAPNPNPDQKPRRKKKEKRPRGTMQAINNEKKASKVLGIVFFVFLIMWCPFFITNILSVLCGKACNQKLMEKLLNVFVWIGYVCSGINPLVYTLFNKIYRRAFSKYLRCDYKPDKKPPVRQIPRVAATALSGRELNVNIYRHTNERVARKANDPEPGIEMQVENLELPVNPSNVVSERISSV

[11] = biological target: Beta-1 adrenergic receptor (Rattus norvegicus, UniProt P18090)
[12] = biological target: 5-hydroxytryptamine receptor 6 (Homo sapiens, UniProt P50406)
5-hydroxytryptamine receptor 6, sequence (P50406 whole entry): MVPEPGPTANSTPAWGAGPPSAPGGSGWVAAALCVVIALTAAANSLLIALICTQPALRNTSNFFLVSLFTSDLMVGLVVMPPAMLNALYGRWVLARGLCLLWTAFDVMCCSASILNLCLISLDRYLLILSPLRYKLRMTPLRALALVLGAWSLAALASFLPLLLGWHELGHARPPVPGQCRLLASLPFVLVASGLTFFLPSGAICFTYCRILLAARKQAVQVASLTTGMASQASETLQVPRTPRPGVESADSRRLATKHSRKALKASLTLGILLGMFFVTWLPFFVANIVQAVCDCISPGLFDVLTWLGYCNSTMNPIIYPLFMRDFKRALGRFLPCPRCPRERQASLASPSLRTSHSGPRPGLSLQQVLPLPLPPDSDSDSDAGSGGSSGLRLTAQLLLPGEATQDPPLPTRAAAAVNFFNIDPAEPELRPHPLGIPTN

Mu-type opioid receptor = Mu-type opioid receptor (Homo sapiens, UniProt P35372)
Mu-type opioid receptor, sequence (P35372 whole entry): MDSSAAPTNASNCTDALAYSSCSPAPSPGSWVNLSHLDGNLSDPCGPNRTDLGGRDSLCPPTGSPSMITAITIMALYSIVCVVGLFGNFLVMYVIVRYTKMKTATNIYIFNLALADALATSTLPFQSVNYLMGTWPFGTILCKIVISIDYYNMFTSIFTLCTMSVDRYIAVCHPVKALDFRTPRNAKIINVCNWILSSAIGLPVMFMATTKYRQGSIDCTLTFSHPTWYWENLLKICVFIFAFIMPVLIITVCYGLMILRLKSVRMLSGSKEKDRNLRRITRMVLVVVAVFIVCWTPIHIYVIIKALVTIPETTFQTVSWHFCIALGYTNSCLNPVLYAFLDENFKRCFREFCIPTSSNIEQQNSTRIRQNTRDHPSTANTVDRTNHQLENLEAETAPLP

[13] = biological target: 5-hydroxytryptamine receptor 5A (Homo sapiens, UniProt P47898)
5-hydroxytryptamine receptor 5A, sequence (P47898 whole entry): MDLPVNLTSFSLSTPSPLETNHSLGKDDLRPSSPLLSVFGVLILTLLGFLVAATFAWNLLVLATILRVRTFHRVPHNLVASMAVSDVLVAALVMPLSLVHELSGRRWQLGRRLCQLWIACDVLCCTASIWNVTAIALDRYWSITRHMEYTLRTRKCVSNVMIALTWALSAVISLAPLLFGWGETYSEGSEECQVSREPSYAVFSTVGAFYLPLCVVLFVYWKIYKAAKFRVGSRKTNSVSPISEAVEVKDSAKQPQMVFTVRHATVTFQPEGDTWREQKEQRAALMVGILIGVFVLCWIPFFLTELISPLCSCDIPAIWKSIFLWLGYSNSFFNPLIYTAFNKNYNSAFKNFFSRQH

[14] = biological target: Kappa-type opioid receptor (Homo sapiens, UniProt P41145)
Kappa-type opioid receptor, sequence (P41145 whole entry): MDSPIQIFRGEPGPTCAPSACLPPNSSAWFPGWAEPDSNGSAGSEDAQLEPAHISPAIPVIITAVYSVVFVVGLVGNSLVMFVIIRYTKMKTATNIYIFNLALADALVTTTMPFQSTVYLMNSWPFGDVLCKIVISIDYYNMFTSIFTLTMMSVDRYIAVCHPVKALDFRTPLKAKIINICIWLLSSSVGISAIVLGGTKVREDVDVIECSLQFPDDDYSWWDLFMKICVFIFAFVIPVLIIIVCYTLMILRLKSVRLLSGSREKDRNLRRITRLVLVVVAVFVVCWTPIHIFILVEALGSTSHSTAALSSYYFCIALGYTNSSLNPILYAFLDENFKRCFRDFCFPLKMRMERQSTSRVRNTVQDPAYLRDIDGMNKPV

D(1A) dopamine receptor = D(1A) dopamine receptor (Homo sapiens, UniProt P21728)
D(1A) dopamine receptor, sequence (P21728 whole entry): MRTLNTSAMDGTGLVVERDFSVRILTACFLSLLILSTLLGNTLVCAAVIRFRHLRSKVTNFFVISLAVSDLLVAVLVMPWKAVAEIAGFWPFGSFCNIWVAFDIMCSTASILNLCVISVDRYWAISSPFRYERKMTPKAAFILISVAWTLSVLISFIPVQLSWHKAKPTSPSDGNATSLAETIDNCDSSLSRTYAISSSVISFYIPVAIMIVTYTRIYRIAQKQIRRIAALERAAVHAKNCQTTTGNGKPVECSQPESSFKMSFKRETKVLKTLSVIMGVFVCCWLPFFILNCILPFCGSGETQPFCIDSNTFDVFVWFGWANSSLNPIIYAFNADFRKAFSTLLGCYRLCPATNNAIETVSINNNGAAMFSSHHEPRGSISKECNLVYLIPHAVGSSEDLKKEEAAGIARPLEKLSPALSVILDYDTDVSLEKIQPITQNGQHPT

Histamine H4 receptor = Histamine H4 receptor (Homo sapiens, UniProt Q9H3N8)
[15] = biological target: 5-hydroxytryptamine receptor 1E (Homo sapiens, UniProt P28566)

Measured: Ki

Histamine H1 receptor, sequence (P35367 whole entry): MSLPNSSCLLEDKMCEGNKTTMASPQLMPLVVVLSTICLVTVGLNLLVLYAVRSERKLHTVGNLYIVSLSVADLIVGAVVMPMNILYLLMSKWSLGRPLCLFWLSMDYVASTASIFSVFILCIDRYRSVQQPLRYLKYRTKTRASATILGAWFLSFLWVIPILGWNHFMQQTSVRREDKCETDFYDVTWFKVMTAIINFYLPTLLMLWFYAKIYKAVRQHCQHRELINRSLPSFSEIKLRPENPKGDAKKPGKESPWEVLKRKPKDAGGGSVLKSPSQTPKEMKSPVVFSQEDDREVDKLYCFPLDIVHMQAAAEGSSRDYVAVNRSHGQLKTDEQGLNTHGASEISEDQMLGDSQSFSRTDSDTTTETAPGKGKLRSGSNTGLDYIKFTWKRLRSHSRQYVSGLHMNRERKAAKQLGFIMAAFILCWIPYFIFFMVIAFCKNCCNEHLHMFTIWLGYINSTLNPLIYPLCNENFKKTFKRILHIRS
Alpha-2B adrenergic receptor, sequence (P18089 whole entry): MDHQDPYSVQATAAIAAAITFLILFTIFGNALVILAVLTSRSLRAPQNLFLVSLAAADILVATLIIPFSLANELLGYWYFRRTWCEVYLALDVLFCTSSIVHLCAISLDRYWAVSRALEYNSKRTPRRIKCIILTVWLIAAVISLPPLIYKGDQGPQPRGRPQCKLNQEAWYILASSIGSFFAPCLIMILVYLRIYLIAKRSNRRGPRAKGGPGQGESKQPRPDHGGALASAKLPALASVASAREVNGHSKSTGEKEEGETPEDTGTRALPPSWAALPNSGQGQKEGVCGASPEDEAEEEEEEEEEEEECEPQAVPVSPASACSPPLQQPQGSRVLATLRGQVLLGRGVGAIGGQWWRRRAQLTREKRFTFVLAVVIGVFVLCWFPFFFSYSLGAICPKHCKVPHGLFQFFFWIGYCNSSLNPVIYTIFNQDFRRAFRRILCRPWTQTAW

COc1ccccc1N1CCN(CCN(C(=O)C2CCCCC2)c2ccccn2)CC1
0.94 µM: D(2) dopamine receptor
0.37 µM: D(3) dopamine receptor
2.57 µM: [6]
6.26 µM: [5]
0.412 µM: [14]
> 10 µM: all other assays above
